Assay results from article PMC5895803, “Inhibition of cancer stem cell like cells by a synthetic retinoid” (Nature Communications, 2018).

Legend:
B16-F1 TRCs [1] = assay: Colony growth of B16-F1 TRCs in 90-Pa 3D soft fibrin gels; format: cell-based, murine; details: 10 µM added day 3, washed out day 4, 3 days after washout
[2] = test system: TRCs of A2780, A549, MCF-7, MDA-MB-435s, A375; assay: Colony growth of TRCs of five human cancer cell lines (summary statements); format: cell-based
Experimental: Salmon fibrinogen and thrombin were purchased from Reagent Proteins (CA, USA). 3D fibrin gels were prepared as described previously[5],[6]. In brief, fibrinogen was diluted into 2 mg mL^−1 with T7 buffer (pH 7.4, 50 mM Tris, 150 mM NaCl). Cells were detached from 2D rigid dishes and cell density was adjusted to 10^4 cells per mL. Fibrinogen and cell solution mixture were made by mixing the same volume of fibrinogen solution and cell solution, resulting in 1 mg mL^−1 fibrinogen and 5000 cells per mL in the mixture fibrin gels. A volume of 50 μL cell/fibrinogen mixture was seeded into each well of 96-well plate and mixed well with pre-added 1 μL thrombin (100 U mL^−1). The cell culture plate was then incubated in 37 °C cell culture incubator for 10 min. Finally, 200 μL of DMEM medium containing 10% FBS and antibiotics was added.
Control B16-F1, A2780, A549, MCF-7, MDA-MB-435s, and A375 cells were cultured in 90-Pa fibrin gels to form round colonies and then treated with 0.1, 1, and 10 μM WYC-209, WYC-209A, and WYC-209B or 0.1% DMSO on day 3, which was washed out with pre-warmed PBS on day 4 with fresh medium, and then kept culturing till day 7 or day 9.

B16-F1 TRCs [3] = assay: Cell cycle analysis (BrdU flow cytometry), S phase of TRCs; format: cell-based, murine; details: 10 μM, 24 hours
Experimental: For Annexin-V and PI staining to quantify cell apoptosis, treated TRCs were isolated from 3D fibrin gel by using 5 mg mL^−1 Dispase II (Sigma), cells were labeled with FITC-conjugated Annexin-V and PI according to the manufacturer’s instruction (Biolegend). Data were acquired on a BD Cantoll (BD biosciences) and analyzed with FlowJo software. For BrdU staining to quantify cell proliferation, cells were labeled with FITC-conjugated anti-BrdU antibody according to the manufacturer’s instruction (FITC BrdU Flow Kit, BD Biosciences) and then data were acquired on an Accuri C6 (BD Biosciences) and analyzed with BD Accuri C6 software.
Supplementary Figure 13. WYC-209 blocks S phase of TRCs. Different cancer cell lines cultured in 3D soft fibrin gel on day 0, then treated with 0.1, 1, or 10 μM WYC-209, WYC-209A, WYC-209B on day 4, isolated cells after 24 hours and labeled with FITC-conjugated anti-BrdU antibody for cell cycle analysis, 10 μM ATRA and Tazarotne as positive controls. (a) Representative images of flow cytometry in different conditions. (b) Quantification of S phase ratio in different conditions. Mean ± s.e.m.; n=3 independent experiments; * P<0.05; ** P<0.01; *** P<0.001 (Student’s t-test).
(§1) (1 picture or pasted object on this page, not shown here)

[4] = test system: cleaved (active) caspase-3 and PARP; assay: Western blotting of cleaved caspase-3 and PARP; format: cell-based, murine; details: 10 μM, 24 h
From the text: To quantify the expression levels of RARα, RARβ, RARγ, caspase-3, cleaved caspase-3, and cleaved PARP, cells were lysed with RIPA lysis buffer. […] Primary antibodies were detected with mouse anti-Rabbit IgG-HRP (1:1000, Santa Cruz, sc-2357), donkey anti-goat IgG-HRP (1:1000, Santa Cruze, sc-2020), or anti-Mouse IgG-HRP (1:1000, Santa Cruz, sc-2005).
Supplementary Figure 37. WYC-209 induces cleaved caspase-3 and PARP expressions.
(a) Representative images of cleaved PARP and cleaved caspase-3 protein expressions in control B16-F1 cells cultured on 2D rigid dishes and treated 0.1% DMSO, 1 or 10 µM WYC-209, WYC-209A or WYC-209B for 24 h. (b) Representative images of cleaved PARP and cleaved caspase-3 protein expression of control B16-F1 cells seeded in 3D soft fibrin gels for […]
hours. (c, d) Quantification of expression levels of cleaved PARP and cleaved caspase-3 in (a). (e, f) Quantification of expression levels of cleaved PARP and cleaved caspase-3 in (b).
All values are normalized by GAPDH. Mean ± s.e.m.; 3 separate experiments; ns, not […]
as §1

[5] = test system: unselected human cancer cells; assay: Unselected human cancer cells on 2D rigid dishes; format: cell-based; details: 10 μM, 48 hours
Experimental: Supplementary Figure 20. WYC-209 detaches adherent human cancer cells on rigid plastic. (a-e): human melanoma MDA-MB-435s (a), human breast cancer MCF-7 (b), human ovarian cancer A2780 (c), human malignant melanoma A375 (d), and human lung cancer A549 (e) were cultured on rigid plastics and treated with 0.1, 1, or 10 μM WYC-209, WYC-209A, or WYC-209B and cell numbers were measured for 48 hours. Cell nuclei were stained with DAPI. None: medium only; DMSO: medium containing 0.1% DMSO. Cell numbers per view field were quantified. Mean ± s.e.m.; n= 5 samples; 3 separate experiments; *P<0.05; ** P<0.01; *** P<0.001 […]
as §1

HaCaT cells = assay: Non-cancerous human epidermal HaCaT cells, 2D rigid dishes and 3D soft fibrin gels; format: cell-based; details: for HaCaT cell numbers on 2D rigid plastic / HaCaT colony growth in 3D soft fibrin gel: 10 μM; for HaCaT colony growth in 3D soft fibrin gel: day 7; for Inhibitory effects towards non-cancerous HaCaT cells: 2D rigid dishes and 3D soft fibrin gels
Experimental: Supplementary Figure 21. WYC-209 has less inhibitory effects on non-cancerous human epidermal cell line HaCaT. (a) Non-cancerous human epidermal HaCaT cells were seeded into 3D soft fibrin gel and treated with 0.1, 1, or 10 μM of WYC-209, WYC-209A, or WYC-209B on day 0, and colony sizes were quantified on day 7.
Bright field images were representative images of colonies on day 7. Scale bars, 50 μm. (b) Quantitation of cell numbers per view field of HaCaT cells plated on 2D rigid plastic. Cell nucleus were stained with DAPI. None: medium only; DMSO: medium containing 0.1% DMSO. Mean ± s.e.m.; n= 5 samples; 3 separate experiments; * P<0.05, *** P<0.001 (Student’s t-test). Note that even at 10 μM concentration no […]
compounds have less inhibitory effects on these non-cancerous human epidermal […]
as §1

Question: For `CCOC(=O)c1cnc(C#Cc2ccc3c(c2)C(C)(C)CC[S@@+]3[O-])nc1` [WYC-209B], which “TRC growth after compound washout” value (B16-F1 TRCs [1]) is on record?
Answer: failed to resume growing

Question: And the “Colony growth after washout and re-plating” value ([2]; pretreated at 10 μM)?
Answer: completely inhibited

Question: What about the “Colony growth after washout and re-plating” value ([2]; pretreated at 0.1 or 1 μM) of the same compound?
Answer: partially inhibited

Question: What about the “Decrease of S phase of TRCs” value (B16-F1 TRCs [3]) of the same compound?
Answer: completely abolished S phase

Question: What about the “Cleaved (active) caspase-3 and PARP” value [4] of the same compound?
Answer: increase

Question: And the “Growth of unselected human cancer cells on 2D rigid dishes” value [5]?
Answer: completely blocked cell growth

Question: What about the “HaCaT cell numbers on 2D rigid plastic” value (HaCaT cells) of the same compound?
Answer: no reduction in cell numbers

Question: What about the “HaCaT colony growth in 3D soft fibrin gel” value (HaCaT cells) of the same compound?
Answer: still some colony growth

Question: What about the “Inhibitory effects towards non-cancerous HaCaT cells” value (HaCaT cells) of the same compound?
Answer: much less inhibitory effects

Question: For `CCOC(=O)c1cnc(C#Cc2ccc3c(c2)C(C)(C)CC[S@+]3[O-])nc1` [WYC-209A], which “TRC growth after compound washout” value (B16-F1 TRCs [1]) is on record?
Answer: failed to resume growing

Question: What about the “Colony growth after washout and re-plating” value ([2]; pretreated at 10 μM) of the same compound?
Answer: completely inhibited

Question: And the “Colony growth after washout and re-plating” value ([2]; pretreated at 0.1 or 1 μM)?
Answer: partially inhibited

Question: And the “Decrease of S phase of TRCs” value (B16-F1 TRCs [3])?
Answer: completely abolished S phase

Question: And the “Cleaved (active) caspase-3 and PARP” value [4]?
Answer: increase

Question: And the “Growth of unselected human cancer cells on 2D rigid dishes” value [5]?
Answer: completely blocked cell growth

Question: And the “HaCaT cell numbers on 2D rigid plastic” value (HaCaT cells)?
Answer: no reduction in cell numbers

Question: What about the “HaCaT colony growth in 3D soft fibrin gel” value (HaCaT cells) of the same compound?
Answer: still some colony growth

Question: What about the “Inhibitory effects towards non-cancerous HaCaT cells” value (HaCaT cells) of the same compound?
Answer: much less inhibitory effects

Question: Which results are given for `CCOC(=O)c1cnc(C#Cc2ccc3c(c2)C(C)(C)CC[S+]3[O-])nc1` (stereo not drawn) [WYC-209]?
Answer: TRC growth after compound washout (B16-F1 TRCs [1]): failed to resume growing; IC50 ([2]; Homo sapiens, 0 h, treated on day 0, read-out: IC50 (range over five human TRC types)): 100 to 520 nM; inhibition at 10 µM ([2]; Homo sapiens, 10 μM, read-out: Growth inhibition of all human TRCs): 100%; Colony growth after washout and re-plating ([2]; pretreated at 10 μM): completely inhibited; Colony growth after washout and re-plating ([2]; pretreated at 0.1 or 1 μM): partially inhibited; TRC growth after drug washout ([2]; treated day 3, washed out day 4, 5 days after washout): failed to resume growth; Decrease of S phase of TRCs (B16-F1 TRCs [3]): completely abolished S phase; Cleaved (active) caspase-3 and PARP [4]: increase; Growth of unselected human cancer cells on 2D rigid dishes [5]: completely blocked cell growth; HaCaT cell numbers on 2D rigid plastic (HaCaT cells): no reduction in cell numbers; HaCaT colony growth in 3D soft fibrin gel (HaCaT cells): still some colony growth; Inhibitory effects towards non-cancerous HaCaT cells (HaCaT cells): much less inhibitory effects
